Tested on: vasopressor response of angiotensin II
Assay: AII Challenge: antagonism of angiotensin II vasopressor response;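 as to Response Average Change: post-dose Angiotensin II-evoked rise in systolic blood pressure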
Format: in vivo
Conditions: 3 mg/kg I.V.; for inhibition in vivo at 3 mg/kg: Rattus norvegicus, iv
Source text: Conscious Male Okamoto-Aoki SHR, 16-20 weeks old, weighing approximately 330 g are purchased from Charles River Labs (Wilmington, Mass.). Conscious rats are restrained in a supine position with elastic tape. The area at the base of the tail is locally anesthetized by subcutaneous infiltration with 2% procaine. The ventral caudal artery and vein are isolated, and a cannula made of polyethylene (PE) 10-20 tubing (fused together by heat) is passed into the lower abdominal aorta and vena cava, respectively. The cannula is secured, heparinized (1,000 I.U./ml), sealed and the wound is closed. The animals are placed in plastic restraining cages in an upright position. The cannula is attached to a Statham P23 Db pressure transducer, and pulsatile blood pressure is recorded to 10-15 minutes with a Gould Brush recorder. (Chan et al., (Drug Development Res., 18:75-94, 1989). Angiotensin II (human sequence, Sigma Chem. Co., St. Louis, Mo.) of 0.05 and 0.1 ug/kg i.v. is injected into all rats (predosing response). Then a test compound, vehicle or a known angiotensin II antagonist is administered i.v., i.p. or orally to each set of rats. The two doses of angiotensin II are given to each rat again at 30, 60, 90, 120, 180, 240 and 300 minutes post dosing the compound or vehicle. The vasopressor response of angiotensin II is measured for the increase in systolic blood pressure in mmHg. The percentage of antagonism or blockade of the vasopressor response of angiotensin II by a compound is calculated using the vasopressor response (increase in systolic blood pressure) of angiotensin II of each rat predosing the compound as 100%.

[1] = AII 0.05 mcg/kg IV, 30 min post dose
[2] = AII 0.05 mcg/kg IV, 60 min post dose
[3] = AII 0.05 mcg/kg IV, 90 min post dose
[4] = AII 0.05 mcg/kg IV, 120 min post dose
[5] = AII 0.05 mcg/kg IV, 180 min post dose
[6] = AII 0.1 mcg/kg IV, 30 min post dose
[7] = AII 0.1 mcg/kg IV, 60 min post dose
[8] = AII 0.1 mcg/kg IV, 90 min post dose
[9] = AII 0.1 mcg/kg IV, 120 min post dose
[10] = AII 0.1 mcg/kg IV, 180 min post dose
[11] = 0.5 h, AII 0.05 mcg/kg IV, 30 min post dose
[12] = 0.5 h, AII 0.1 mcg/kg IV, 30 min post dose
[13] = 1 h, AII 0.05 mcg/kg IV, 60 min post dose
[14] = 1 h, AII 0.1 mcg/kg IV, 60 min post dose
[15] = 2 h, AII 0.05 mcg/kg IV, 120 min post dose
[16] = 2 h, AII 0.1 mcg/kg IV, 120 min post dose
[17] = 3 h, AII 0.05 mcg/kg IV, 180 min post dose
[18] = 3 h, AII 0.1 mcg/kg IV, 180 min post dose
[19] = […], AII 0.05 mcg/kg IV, 90 min post dose
[20] = […], AII 0.1 mcg/kg IV, 90 min post dose
[21] = AII 0.05 mcg/kg IV, 240 min post dose
[22] = AII 0.05 mcg/kg IV, 300 min post dose
[23] = AII 0.1 mcg/kg IV, 240 min post dose
[24] = AII 0.1 mcg/kg IV, 300 min post dose
[25] = 4 h, AII 0.05 mcg/kg IV, 240 min post dose
[26] = 4 h, AII 0.1 mcg/kg IV, 240 min post dose
[27] = 5 h, AII 0.05 mcg/kg IV, 300 min post dose
[28] = 5 h, AII 0.1 mcg/kg IV, 300 min post dose

## CCCCc1nc2ccc([C@H]3C[C@]4(C)CCCCN4O3)cc2c(=O)n1Cc1ccc(-c2ccccc2-c2nnn[nH]2)cc1 (relative stereo) [Example 65]
[1]
  Response Average Change: 2.5 mmHg
[2]
  Response Average Change: 15.5 mmHg
[3]
  Response Average Change: 11 mmHg
[4]
  Response Average Change: 8 mmHg
[5]
  Response Average Change: 25 mmHg
[6]
  Response Average Change: 2.5 mmHg
[7]
  Response Average Change: 11 mmHg
[8]
  Response Average Change: 16.5 mmHg
[9]
  Response Average Change: 12.5 mmHg
[10]
  Response Average Change: 17.5 mmHg
[11]
  inhibition in vivo at 3 mg/kg: 95%
[12]
  inhibition in vivo at 3 mg/kg: 95%
[13]
  inhibition in vivo at 3 mg/kg: 66%
[14]
  inhibition in vivo at 3 mg/kg: 77%
[15]
  inhibition in vivo at 3 mg/kg: 82%
[16]
  inhibition in vivo at 3 mg/kg: 74%
[17]
  inhibition in vivo at 3 mg/kg: 45%
[18]
  inhibition in vivo at 3 mg/kg: 64%
[19]
  inhibition in vivo at 3 mg/kg: 76%
[20]
  inhibition in vivo at 3 mg/kg: 66%

## CCCCc1nc2ccc([C@@]3(C)C[C@@H]4CCCCN4O3)cc2c(=O)n1Cc1ccc(-c2ccccc2-c2nnn[nH]2)cc1 (relative stereo) [Example 67, Cis-2-Butyl-6-(hexahydro-2-methyl-2H-isoxazolo[2,3-a]pyridin-2-yl)-3-[[2'-(1H-tetrazol-5-yl)[1,1'-biphenyl]-4-yl]methyl]-4(3H)-quinazolinone]
[1]
  Response Average Change: 20 mmHg
[2]
  Response Average Change: 7.5 mmHg
[3]
  Response Average Change: 7.5 mmHg
[4]
  Response Average Change: 12.5 mmHg
[5]
  Response Average Change: 15 mmHg
[21]
  Response Average Change: 7.5 mmHg
[22]
  Response Average Change: 14 mmHg
[6]
  Response Average Change: 14 mmHg
[7]
  Response Average Change: 15 mmHg
[8]
  Response Average Change: 12.5 mmHg
[9]
  Response Average Change: 10 mmHg
[10]
  Response Average Change: 11.5 mmHg
[23]
  Response Average Change: 11 mmHg
[24]
  Response Average Change: 17.5 mmHg
[11]
  inhibition in vivo at 3 mg/kg: 61%
[12]
  inhibition in vivo at 3 mg/kg: 77%
[13]
  inhibition in vivo at 3 mg/kg: 85%
[14]
  inhibition in vivo at 3 mg/kg: 75%
[15]
  inhibition in vivo at 3 mg/kg: 76%
[16]
  inhibition in vivo at 3 mg/kg: 83%
[17]
  inhibition in vivo at 3 mg/kg: 71%
[18]
  inhibition in vivo at 3 mg/kg: 81%
[25]
  inhibition in vivo at 3 mg/kg: 85%
[26]
  inhibition in vivo at 3 mg/kg: 82%
[27]
  inhibition in vivo at 3 mg/kg: 73%
[28]
  inhibition in vivo at 3 mg/kg: 71%
[19]
  inhibition in vivo at 3 mg/kg: 85%
[20]
  inhibition in vivo at 3 mg/kg: 79%

## CCCCc1nc2ccc([C@]3(C)C[C@@H]4CCCCN4O3)cc2c(=O)n1Cc1ccc(-c2ccccc2-c2nnn[nH]2)cc1 (relative stereo) [Example 68, Trans-2-Butyl-6-(hexahydro-2-methyl-2H-isoxazolo[2,3-a]pyridin-2-yl)-3-[[2'-(1H-tetrazol-5-yl)[1,1'-biphenyl]-4-yl]methyl]-4(3H)-quinazolinone]
[1]
  Response Average Change: 2.5 mmHg
[2]
  Response Average Change: 2.5 mmHg
[3]
  Response Average Change: 7.5 mmHg
[4]
  Response Average Change: 11 mmHg
[5]
  Response Average Change: 10 mmHg
[21]
  Response Average Change: 20 mmHg
[22]
  Response Average Change: 10 mmHg
[6]
  Response Average Change: 5 mmHg
[7]
  Response Average Change: 9 mmHg
[8]
  Response Average Change: 9 mmHg
[9]
  Response Average Change: 10 mmHg
[10]
  Response Average Change: 20 mmHg
[23]
  Response Average Change: 17.5 mmHg
[24]
  Response Average Change: 22.5 mmHg
[11]
  inhibition in vivo at 3 mg/kg: 95%
[12]
  inhibition in vivo at 3 mg/kg: 91%
[13]
  inhibition in vivo at 3 mg/kg: 95%
[14]
  inhibition in vivo at 3 mg/kg: 84%
[15]
  inhibition in vivo at 3 mg/kg: 79%
[16]
  inhibition in vivo at 3 mg/kg: 82%
[17]
  inhibition in vivo at 3 mg/kg: 81%
[18]
  inhibition in vivo at 3 mg/kg: 64%
[25]
  inhibition in vivo at 3 mg/kg: 61%
[26]
  inhibition in vivo at 3 mg/kg: 69%
[27]
  inhibition in vivo at 3 mg/kg: 81%
[28]
  inhibition in vivo at 3 mg/kg: 60%
[19]
  inhibition in vivo at 3 mg/kg: 85%
[20]
  inhibition in vivo at 3 mg/kg: 84%

## CCCCc1nc2ccc([C@]3(C)C[C@@H]4CCC(C)(C)N4O3)cc2c(=O)n1Cc1ccc(-c2ccccc2-c2nnn[nH]2)cc1 (relative stereo) [Example 69, Trans-2-Butyl-6-(hexahydro-2,6,6-trimethylpyrrolo[1,2-b]isoxazol-2-yl)-3-[[2'-(1H-tetrazol-5-yl)[1,1'-biphenyl]-4-yl]methyl]-4(3H)-quinazolinone]
[1]
  Response Average Change: 0 mmHg
[2]
  Response Average Change: 2.5 mmHg
[3]
  Response Average Change: 2.5 mmHg
[4]
  Response Average Change: 5 mmHg
[5]
  Response Average Change: 2.5 mmHg
[21]
  Response Average Change: 5 mmHg
[22]
  Response Average Change: 10 mmHg
[6]
  Response Average Change: 0 mmHg
[7]
  Response Average Change: 0 mmHg
[8]
  Response Average Change: 25 mmHg
[9]
  Response Average Change: 2.5 mmHg
[10]
  Response Average Change: 0 mmHg
[23]
  Response Average Change: 7.5 mmHg
[24]
  Response Average Change: 12.5 mmHg
[11]
  inhibition in vivo at 3 mg/kg: 100%
[12]
  inhibition in vivo at 3 mg/kg: 100%
[13]
  inhibition in vivo at 3 mg/kg: 92%
[14]
  inhibition in vivo at 3 mg/kg: 100%
[15]
  inhibition in vivo at 3 mg/kg: 83%
[16]
  inhibition in vivo at 3 mg/kg: 94%
[17]
  inhibition in vivo at 3 mg/kg: 92%
[18]
  inhibition in vivo at 3 mg/kg: 100%
[25]
  inhibition in vivo at 3 mg/kg: 83%
[26]
  inhibition in vivo at 3 mg/kg: 81%
[27]
  inhibition in vivo at 3 mg/kg: 67%
[28]
  inhibition in vivo at 3 mg/kg: 69%
[19]
  inhibition in vivo at 3 mg/kg: 92%
[20]
  inhibition in vivo at 3 mg/kg: 94%

Source: US5358951A, “Angiotensin II receptor blocking 2, 3, 6 substituted quinazolinones” (American Cyanamid Company, priority 1993, dated 1994)
